# Laboratory results published in patent US20240376094A2, “SELECTIVE BCL-XL PROTAC COMPOUNDS AND METHODS OF USE” (Les Laboratoires Servier, priority 2021, published 2024).
# Legend:
# Type in all cases: cell-based
# [1] = system: MOLT-4 cells; test: MOLT-4 cell viability, MTT assay; conditions: Homo sapiens, MOLT-4, 48 h
# Text: The MTT colorimetric assay is based on the mitochondrial reduction of tetrazolium salt by living cells. The viable cell number is proportional to the production of formazan salts, which can be read spectrophotometrically at 540 nm. The CTG luminescent assay (CellTiter GLO, Promega) is based on a reagent which lyses cells and measures total adenosine triphosphate (ATP) content. The viable cell number is proportional to the production of ATP.
# MOLT-4 cells were purchased from ATCC and cultivated in RPMI 1640 supplemented with 10% heat inactivated fetal bovine serum, penicillin (100 IU/mi), streptomycin (100 μg/ml) and L-glutamine (2 mM). Cells were cultured at 37° C. in a humidified atmosphere containing 5% […].
# For MTT assay, cells were seeded in 96 microwell plates (150 μL per well) and exposed to the compounds for 48 h (3.16 fold serially diluted; 9 concentrations each, triplicates). At the end of incubation time, 15 μL of MTT solution (5 mg/ml) were added per well and the cells were incubated for another 4 h. Then, 100 μL of 10% Sodium Dodecyl Sulfate (SDS)/HCl 10 mM were added per well and the plate was incubated overnight, before measurement of optical density at 540 nm.
# IC50, were calculated using standard four-parametric curve fitting. IC50 is defined as the compound concentration at which the MTT or CTG signal is reduced to 50% of that measured for the control. Results shown in Table 14 represent the mean of at least 2 independent experiments.
# [2] = molecular target: T1, Bcl-xL (Homo sapiens, UniProt Q07817); test: HCT116 Bcl-xL degradation, capillary-based immunoassay (WES); conditions: for DC50: HCT116, 24 h, 9-point serial dilution; for remaining activity at 0.01 µM / remaining activity at 0.1 µM: HCT-116, 24 h, % of untreated cells; for remaining activity at 0.01 µM: HCT116, 10 nM; for remaining activity at 0.1 µM: HCT116, 100 nM
# T1 construct: Measured levels of Bcl-xL protein of HCT116 cells treated with the tested compounds; host or cells: HCT116
# T1 sequence (Q07817 whole entry): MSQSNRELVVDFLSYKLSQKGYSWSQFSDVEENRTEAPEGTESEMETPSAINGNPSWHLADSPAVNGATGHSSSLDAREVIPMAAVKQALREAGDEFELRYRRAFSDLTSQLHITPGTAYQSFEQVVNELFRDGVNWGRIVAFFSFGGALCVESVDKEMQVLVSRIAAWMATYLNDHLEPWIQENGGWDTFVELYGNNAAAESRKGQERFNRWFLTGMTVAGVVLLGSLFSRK
# Summary of the method: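 HCT116 cells treated 24 h with compound at 10/100 nM and/or 9-point dilution (quadruplicates), then lysed. Bcl-xL measured by capillary WES immunoassay, normalized to cofilin and expressed as % of untreated cells. DC50 from four-parameter curve fit.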
# [3] = system: COR-L105; test: CellTiter-Glo proliferation assay, COR-L105; conditions: Homo sapiens, COR-L105, 120 h, COR-L105, 5 days
# Description: (§1) The BCL-xL degrader compounds were tested against two endogenous cancer cell lines: • COR-L105: ECACC No. 92031918 cultured in RPMI-1640+10% FBS • NCI-H1650: (ATCC No. CRL-5883 cultured in RPMI-1640+10% FBS
# (§2) The ability of the BCL-xL degrader low molecular weight compounds to inhibit cell proliferation and survival was assessed using the Promega CellTiter-Glo® proliferation assay.
# (§3) Cell lines were cultured in media that is optimal for their growth at 5% CO2, 37° C. in a tissue culture incubator. Prior to seeding for the proliferation assay, the cells were split at least 2 days before the assay to ensure optimal growth density. On the day of seeding, adherent cells were lifted off tissue culture flasks using 0.25% trypsin. Cell viability and cell density were determined using a cell counter (Vi-Cell XR Cell Viability Analyzer, Beckman Coulter). Cells with higher than 85% viability were seeded for the assay.
# (§4) The COR-105 cell line was seeded in white, clear bottom 384-well TC treated plates (Corning cat. #3765). Cells were seeded at a density of 1,000 cells per well in 45 μL of standard growth media. Plates were incubated at 5% CO2, 37° C. overnight in a tissue culture incubator. The NCI-H1650 cell line was seeded in black, clear round bottom 384-well ultra-low attachment spheroid microplates (Corning cat. #3830). Cells were seeded at a density of 3,000 cells per well in 45 uL of standard growth media. Plates were spun in a centrifuge for 5 minutes and 1,000 RPM. Plates were incubated at 5% CO2, 37° C. for 72 hours in a tissue culture incubator.
# (§5) On the day of dosing, BCL-xL degrader low molecular weight compounds were prepared at 1 OX in standard growth media. The prepared drug treatments were then added to the cells resulting in final concentrations of 0.508 nM-10 μM and a final volume of 50 μL per well. Each drug concentration was tested in quadruplets. Plates were incubated at 5% CO2, 37° C. for 5 days in a tissue culture incubator.
# (§6) For COR-L105 plates, cell viability was assessed through the addition of 25 μL of CellTiter Glo® (Promega, cat #G7573), a reagent which lyses cells and measures total adenosine triphosphate (ATP) content. Plates were incubated at room temperature for 10 minutes to stabilize luminescent signals prior to reading with a luminescence reader (EnVision Multilabel Plate Reader, PerkinElmer). For NCI-H1650 plates, cell viability was assessed through the addition of 40 μL of CellTiter Glo® 3D Cell Viability Assay substrate (Promega, cat #G9681), a reagent which lyses cells and measures total adenosine triphosphate (ATP) content. Wells were mixed thoroughly and plates were incubated at room temperature for 30 minutes to stabilize luminescent signals prior to reading using a luminescence reader (EnVision Multilabel Plate Reader, PerkinElmer).
# (§7) To evaluate the effect of the drug treatments, luminescent counts from wells containing untreated cells (100% viability) were used to normalize treated samples. A variable slope model was applied to fit a nonlinear regression curve to the data in GraphPad PRISM version 7.02 software. IC50 and Amax values were extrapolated from the resultant curves. The concentrations of treatment required to inhibit 50% of cell growth or survival (IC50) were calculated with representative IC50 values of the cell lines tested summarized in Table 11.
# [4] = system: NCI-H1650; test: CellTiter-Glo 3D proliferation assay, NCI-H1650 spheroids; conditions: Homo sapiens, NCI-H1650, 120 h, 5 days
# Description: as §1, §2, §3, §4, §5, §6, §7
# [5] = system: EBC-1 lung cancer cell line; test: EBC-1 cell proliferation, CellTiter-Glo assay; conditions: Homo sapiens, 120 h; Ebc-1 cell viability, CTG assay, 5 days of treatment; read-out: CTG 5 day Ebc1 GI50
# Summary of the method: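 EBC-1 cells seeded at 1000 per well overnight, then exposed to 10-point dilutions (0.508 nM–10 μM final) for 5 days at 37 °C, in triplicate. ATP luminescence by CellTiter-Glo, normalised to untreated wells; GI50 from four-parameter logistic fit, runs valid only with at least one doubling.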
# [6] = molecular target: T2, HiBiT-tagged BCL-xL (Homo sapiens, UniProt Q07817); test: NCI-H1650 BCL-xL protein levels, Nano-Glo HiBiT Lytic Detection; conditions: NCI-H1650 expressing HiBiT-tagged BCL-xL, overnight incubation, read-out: Bcl-xl HIBIT NCIH1650 DC50
# T2 construct: expressed in transfected cells; host or cells: NCI-H1650 (ATCC No. CRL-5883), engineered HiBiT cell line
# T2 sequence (Q07817 whole entry): as above
# Summary of the method: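 NCI-H1650 cells expressing HiBiT-tagged BCL-xL (5000/well) were treated overnight at 37° C with 10 concentrations, final 0.508 nM-10 μM, in triplicate. Remaining BCL-xL measured by Nano-Glo HiBiT lytic luminescence, normalized to untreated cells; 50% values by four-parameter logistic fit.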
Structure (SMILES),IC50 [1] [nM],DC50 [2] [nM],remaining activity at 0.01 µM [2] [%],remaining activity at 0.1 µM [2] [%],IC50 [3] [µM],Emax ([3]; read-out: COR-L105 Span (max)) [%],IC50 [4] [nM],Emax ([4]; read-out: NCI-H1650 Span (Amax)) [%],GI50 [5] [nM],DC50 [6] [nM]
"Cc1c(Nc2nc3ccccc3s2)nnc2c1CCCN2c1ccc(-c2cnn(CC34CC5(C)CC(C)(C3)CC(OCCN(C)CCCCCCCCOc3ccc6c(c3)C(=O)N(C3CCC(=O)NC3=O)C6=O)(C5)C4)c2C)c(C(=O)O)n1 (stereo not drawn) [Example 10, 6-[3-(1,3-benzothiazol-2-ylamino)-4-methyl-6,7-dihydro-5H-pyrido[2,3-c]pyridazin-8-yl]-3-[1-[[3-[2-[8-[2-(2,6-dioxo-3-piperidyl)-1,3-dioxo-isoindolin-5-yl]oxyoctyl-methyl-amino]ethoxy]-5,7-dimethyl-1-adamantyl]methyl]-5-methyl-pyrazol-4-yl]pyridine-2-carboxylic acid]",0.398,> 316,48,43,,,,,,
"Cc1ncsc1-c1ccc(CNC(=O)[C@@H]2C[C@@H](O)CN2C(=O)[C@@H](NC(=O)CCCC(=O)N2CCN(CC#Cc3ccc(OCCCc4sc(N5CCCc6c5nnc(Nc5nc7ccccc7s5)c6C)nc4C(=O)O)c(F)c3)CC2)C(C)(C)C)cc1 [Example 18, 2-[3-(1,3-benzothiazol-2-ylamino)-4-methyl-6,7-dihydro-5H-pyrido[2,3-c]pyridazin-8-yl]-5-[3-[2-fluoro-4-[3-[4-[5-[[(1S)-1-[(2S,4R)-4-hydroxy-2-[[4-(4-methylthiazol-5-yl)phenyl]methylcarbamoyl]pyrrolidine-1-carbonyl]-2,2-dimethyl-propyl]amino]-5-oxo-pentanoyl]piperazin-1-yl]prop-1-ynyl]phenoxy]propyl] thiazole-4-carboxylic acid]",2.72,6.6,52,52,,,,,,
"Cc1ncsc1-c1ccc(CNC(=O)[C@@H]2C[C@@H](O)CN2C(=O)[C@@H](NC(=O)CCCCCCC(=O)N2CCN(CC#Cc3ccc(OCCCc4sc(N5CCCc6c5nnc(Nc5nc7ccccc7s5)c6C)nc4C(=O)O)c(F)c3)CC2)C(C)(C)C)cc1 [Example 20, 2-[3-(1,3-benzothiazol-2-ylamino)-4-methyl-6,7-dihydro-5H-pyrido[2,3-c]pyridazin-8-yl]-5-[3-[2-fluoro-4-[3-[4-[8-[[(1S)-1-[(2S,4R)-4-hydroxy-2-[[4-(4-methylthiazol-5-yl)phenyl]methylcarbamoyl]pyrrolidine-1-carbonyl]-2,2-dimethyl-propyl]amino]-8-oxo-octanoyl]piperazin-1-yl]prop-1-ynyl]phenoxy]propyl]thiazole-4-carboxylic acid]",4.49,,51,31,,,,,,
"CNCC#Cc1ccc(OCCCc2sc(N(CCCc3cn(CCOCCOCCOCCNC(=O)COc4cccc5c4C(=O)N(C4CCC(=O)NC4=O)C5=O)nn3)c3cc(C)c(Nc4nc5ccccc5s4)nn3)nc2C(=O)O)c(F)c1 (stereo not drawn) [Example 27, 2-[[6-(1,3-benzothiazol-2-ylamino)-5-methyl-pyridazin-3-yl]-[3-[1-[2-[2-[2-[2-[[2-[2-(2,6-dioxo-3-piperidyl)-1,3-dioxo-isoindolin-4-yl]oxyacetyl]amino]ethoxy]ethoxy]ethoxy]ethyl]triazol-4-yl]propyl]amino]-5-[3-[2-fluoro-4-[3-(methylamino)prop-1-ynyl]phenoxy]propyl]thiazole-4-carboxylic acid]",669,,60,49,,,,,,
"Cc1ncsc1-c1ccc(CNC(=O)[C@@H]2C[C@@H](O)CN2C(=O)[C@@H](NC(=O)C2(F)CC2)C(C)(C)C)c(OCCCCCCCCCN2CCN(CC#Cc3ccc(OCCCc4sc(N5CCCc6c5nnc(Nc5nc7ccccc7s5)c6C)nc4C(=O)O)c(F)c3)CC2)c1 [Example 57, 2-(3-(benzo[d]thiazol-2-ylamino)-4-methyl-6,7-dihydropyrido [2,3-c]pyridazin-8(5H)-yl)-5-(3-(2-fluoro-4-(3-(4-(9-(2-(((2S,4R)-1-((S)-2-(1-fluorocyclopropane-1-carboxamido)-3,3-dimethylbutanoyl)-4-hydroxypyrrolidine-2-carboxamido)methyl)-5-(4-methylthiazol-5-yl)phenoxy)nonyl)piperazin-1-yl)prop-1-yn-1-yl)phenoxy)propyl)thiazole-4-carboxylic acid]",,,,,3.63,72.5,258,126,5,18
"Cc1cc(N(CCCCNC(=O)CCOCCOCCOCCOCCNc2cccc3c2C(=O)N(C2CCC(=O)NC2=O)C3=O)c2nc(C(=O)O)c(CCCOc3ccc(C#CCN(C)C)cc3F)s2)nnc1Nc1nc2ccccc2s1 (stereo not drawn) [Example 149, 2-[[6-(1,3-benzothiazol-2-ylamino)-5-methyl-pyridazin-3-yl]-[4-[3-[2-[2-[2-[2-[[2-(2,6-dioxo-3-piperidyl)-1,3-dioxo-isoindolin-4-yl]amino]ethoxy]ethoxy]ethoxy]ethoxy]propanoylamino]butyl]amino]-5-[3-[4-[3-(dimethylamino)prop-1-ynyl]-2-fluoro-phenoxy]propyl]thiazole-4-carboxylic acid]",358,,,,,,,,,
